Data set [1] deals with platelet agregation induced by PAF. The experiment in a line: Inhibition of platelet agregation induced by PAF. To be noted: Oryctolagus cuniculus, New Zealand rabbit platelets, agregometer at 57° C., Table I. The format is cell-based, New Zealand rabbits. Here is the method: 1) Inhibition of platelet agregation induced by PAF
This experimentation was conducted according to the method of R. KINLOUGH. RATHBONE, J. P. CAZENAVE, M. PACKHAM and F. MUSTARD, Lab. Invest. 48, 98, 1980. In this test, New Zealand rabbits were used (male New Zealand rabbits of an average weight of 5 kg).
The determinations are made on a chrono-log Coultronics agregometer, at […] coupled with a graphic recorder; the results of these determinations (in molecular concentration) are reported on the table I on the central column.

Data set [2] deals with benzodiazepine receptors. The experiment in a line: Inhibition of the binding to benzodiazepine receptors (rat brains). To be noted: rat brains incubated 1 h 30 at 4° C.; 3H-RO-15-4788 and 3H-RO-5-4864 as tracers; Table I; read-out: BDZ receptors (inhibition of the binding to benzodiazepine receptors). The text has this:
2) Inhibition of the binding to benzodiazepine receptors
The interest of the previous experimentation depends on the results obtained in this experimentation: as a compound of the invention has a benzodiazepine like structure, it is important to check whether the specific benzodiazepine activity would not appear at the dose where platelet agregation was inhibited.
Therefore, this experimentation has been conducted according to the method of MOHLER H. and RICHARD J. G. Agonist and antagonist benzodiazepine receptor intereaction in vitro, Nature, vol. 294, 763°-765, 1981.
This experimentation was conducted on rat brains incubated 1 h 30 at 4° C. using ^3 H-RO-15-4788 and ^3 H-RO-5-4864 (NEN) as tracers and […] and RO-5-4864 as reference antagonists.
The results in molecular concentration are reported in the table I, on the right hand column.

For data set [3], the system named is bronchospasm induced by the PAF. The experiment in a line: Action on the bronchospasm induced by the PAF in anaesthetized guinea-pigs. The settings on record: male Hartley guinea-pigs, oral, 1 hour before PAF i.v.; for Percentage of action: change versus controls; for Percentage of bronchoconstriction: controls 79. ± 5.55, dose not given. The class given is in vivo, guinea-pig. The text has this: 3) Action on the bronchospasm induced by the PAF
The PAF intravenous injection in anaesthetized guinea-pigs induces a bronchoconstriction with a leucopeny and a thrombocytopeny, according to the method described in S. DESQUAND, C. TOUVAY, J. RANDON, V. LAGENTE, B. VILAIN, I. MARIDONNEAU-PARINI, A. ETIENNE, J. LEFORT, P. BRAQUET and B. VARGAFTIG. Interference of BN 52021 (Ginkolide B) with the bronchopulmonary effects of PAF-acether in the guinea-pig. Eur. J. Pharmacol. 127: 83-95, 1986.
Male Hartley guinea-pigs (400-450 g) (Charles River) anaesthetized with urethane (2 g/kg IP), then are thracheotomized and submitted to a forced respiration with a breathing pump:70-80 strokes/mn, 1 ml of air/ 100 g per stroke. A catheter is introduced in the jugular vein for the injections, an other is introduced in the carotic artery for blood takings. The initial resistance is kept constant under the pressure of 10 cm of water in accordance with the Konzett and Rossler method and the air in excess is measured with a transducor for bronchospasm UGO BASILE together with an enregistror GEMINI. The guinea-pigs had received an IV injection of pancuronium (Pavulon) to inhibit their spontaneous respiration.
The compound according to the invention and the reference compound WEB 2086 (see the above cited Boehringer patent) have been prepared as suspension in gummy water and administrated orally 1 hour before the stimulation by the PAF.
The bronchoconstriction is appreciated by the calculation of the percentage of bronchoconstriction [formula] wherein A stands for induced bronchoconstriction in mm and B stands for maximum bronchoconstriction in mm.

A short description of data set [4]: Toxicity on the mice. The settings on record: mouse, in vivo, IP route.

The structures appear in SMILES notation.

Take `COc1ccc(NC(=S)N2CCc3c(sc4c3C(c3ccccc3Cl)=NCc3nnc(C)n3-4)C2)cc1` [Example 7, 6-(2-chlorophenyl)-9-(4-methoxy)phenylthiocarbamoyl-7,8,9,10-tetrahydro-1-methyl4H-pyrido[4',3':4,5]thieno[3,2-f]1,2,4-triazolo[4,3-a]1,4-diazepine]: in data set [1], the IC50 was determined as 301 nM. The IC50 in data set [2] stood at 2000 nM. In data set [3], the Percentage of action is recorded as -83.5% and the Percentage of bronchoconstriction was 13 ± 4.39%.

With `Cc1nnc2n1-c1sc(CCC(=O)N3CCOCC3)cc1C(c1ccccc1Cl)=NC2` [WEB 2086, reference compound], in data set [3], the Percentage of action is -68.0% and the Percentage of bronchoconstriction came out at 25.3%.

`Cc1nnc2n1-c1sc3c(c1C(c1ccccc1Cl)=NC2)CCN(C(=O)Nc1cccc(Cl)c1Cl)C3` [Example 17, 6-(2-chlorophenyl)-9-(2,3-dichloro)phenylcarbamoyl-7,8,9,10-tetrahydro-1-methyl 4H-pyrido[4',3':4,5]thieno[3,2-f]1,2,4-triazolo[4,3-a]1,4-diazepine]: the IC50 in data set [1] came out at 55 nM; in data set [2] it was 920 nM. In data set [4], this molecule came in with a 50% lethal dose (LD50) of 400 to 1000 mg/kg.

Take `Cc1nnc2n1-c1sc3c(c1C(c1ccccc1Cl)=NC2)CCN(C(=S)Nc1ccc(C(C)(C)C)cc1C(C)(C)C)C3` [Example 22, 6-(2-chlorophenyl)-9-(2,4-diterbutyl)phenylthiocarbamoyl-7,8,9,10-tetrahydro-1-methyl-4H-pyrido[4',3':4,5]thieno[3,2-f]1,2,4-triazolo[4,3-a]1,4-diazepine]: the IC50 in data set [1] amounted to 366 nM. In addition, the IC50 in data set [2] is 630 nM. Also, in data set [3], the Percentage of action is reported as -67.7% and the Percentage of bronchoconstriction worked out at 25.5%.

In data set [1], `Cc1nnc2n1-c1sc3c(c1C(c1ccccc1Cl)=NC2)CCN(C(=O)NC(C)(C)C)C3` [Example 3, 6-(2-chlorophenyl)-9-tertbutylcarbamoyl-7,8,9,10-tetra-hydro-1-methyl4H-pyrido[4',3':4,5]thieno[3,2-f]1,2,4-triazolo [4,3-a]1,4-diazepine] showed an IC50 of 17.1 nM. Besides, in data set [2], the IC50 is 430 nM. Moreover, in data set [3], the Percentage of action was -63.7% and the Percentage of bronchoconstriction is 28.7%.

In the case of `Cc1nnc2n1-c1sc3c(c1C(c1ccccc1Cl)=NC2)CCN(C(=O)Nc1ccc(C(C)(C)C)cc1)C3` [Example 10, 6-(2-chlorophenyl)-9-(4-tertbutyl)phenylcarbamoyl-7,8,9,10-tetrahydro-1-methyl 4H-pyrido[4',3':4,5]thieno [3,2-f]1,2,4-triazolo[4,3-a]1,4-diazepine], the results for the IC50 in data set [1] and in data set [2] were 8.8 nM and 5250 nM, respectively. The Percentage of action in data set [3] is listed as -66.2%. In addition, in data set [3], the Percentage of bronchoconstriction is listed as 26.7%. Further, the LD50 in data set [4] fell in the range of 400 to 1000 mg/kg.

For `COc1cc(NC(=O)N2CCc3c(sc4c3C(c3ccccc3Cl)=NCc3nnc(C)n3-4)C2)cc(OC)c1OC` [Example 8, 6-(2-chlorophenyl)-9-(3,4,5-trimethoxy)phenylcarbamoyl-7,8,9,10-tetrahydro-1-methyl 4H-pyrido[4',3':4,5]thieno [3,2-f]1,2,4-triazolo [4,3-a]1,4-diazepine], the IC50 in data set [1] was 11.5 nM. In data set [2], the IC50 turned out to be 1500 nM. For the same molecule, in data set [3], the Percentage of action is -79.5% and the Percentage of bronchoconstriction is on record as 16.2%.

`Cc1nnc2n1-c1sc3c(c1C(c1ccccc1Cl)=NC2)CCN(C(=O)Nc1ccc(Oc2ccccc2)cc1)C3` [Example 18, 6-(2-chlorophenyl)-9-(4-phenoxy)phenylcarbamoyl-7,8,9,10-tetrahydro-1-methyl 4H-pyrido[4',3':4,5]thieno[3,2-f]1,2,4-triazolo[4,3-a]1,4-diazepine]: the IC50 in data set [1] is 33 nM. The IC50 in data set [2] turned out to be 860 nM. In addition, in data set [3], the Percentage of action is -81.8% and the Percentage of bronchoconstriction is on record as 14.1%. In data set [4], this molecule showed a 50% lethal dose (LD50) of 400 to 1000 mg/kg.

Turning to `Cc1nnc2n1-c1sc3c(c1C(c1ccccc1Cl)=NC2)CCN(C(=S)NCc1ccco1)C3` [Example 24, 6-(2-chlorophenyl)-9-(2-furfuryl)thiocarbamoyl-7,8,9,10-tetrahydro-1-methyl-4H-pyrido[4',3':4,5]thieno[3,2-f]1,2,4-triazolo[4,3-a]1,4-diazepine], in data set [1], the IC50 worked out at 48 nM. For the same molecule, the IC50 in data set [2] is 650 nM. For the same molecule, in data set [3], the Percentage of action is given as -57.9% and the Percentage of bronchoconstriction is recorded as 33.3%.

Take `Cc1nnc2n1-c1sc3c(c1C(c1ccccc1Cl)=NC2)CCN(C(=S)Nc1ccccc1C(F)(F)F)C3` [Example 12, 6-(2-chlorophenyl)-9-(2-trifluoromethyl)phenylthiocarbamoyl-7,8,9,10-tetrahydro-1-methyl 4H-pyrido[4',3':4,5]thieno[3,2-f]1,2,4-triazolo[4,3-a]1,4-diazepine]: the figures for the IC50 in data set [1] and in data set [2] were 171 nM and 3500 nM, respectively.

For the molecule `CCCCCCCCCCCCCCCCNC(=S)N1CCc2c(sc3c2C(c2ccccc2Cl)=NCc2nnc(C)n2-3)C1` [Example 5, 6-(2-chlorophenyl)-9-hexadecylthiocarbamoyl-7,8,9,10-tetrahydro-1-methyl4H-pyrido[4',3':4,5]thieno [3,2-f]1,2,4-triazolo [4,3-a]1,4-diazepine], the values for the IC50 in data set [1] and in data set [2] were 297 nM and 63000 nM, respectively. Moreover, the Percentage of action in data set [3] is -61.6%. Moreover, the Percentage of bronchoconstriction in data set [3] is listed as 30.3%.

Molecule `Cc1nnc2n1-c1sc3c(c1C(c1ccccc1Cl)=NC2)CCN(C(=O)Nc1ccc(C(F)(F)F)cc1)C3` [Example 14, 6-(2-chlorophenyl)-9-(4-trifluoromethyl)phenylcarbamoyl-7,8,9,10-tetrahydro-1-methyl 4H-pyrido[4',3':4,5]thieno[3,2-f]1,2,4-triazolo[4,3-a]1,4-diazepine] had an IC50 in data set [1] of 150 nM. Also, in data set [2], the IC50 was found to be 70500 nM. For the same molecule, in data set [3], the Percentage of action is listed as -38.5% and the Percentage of bronchoconstriction was determined as 48.6%.

Molecule `Cc1nnc2n1-c1sc3c(c1C(c1ccccc1Cl)=NC2)CCN(C(=S)NS(=O)(=O)c1ccc[nH]1)C3` [Example 33, 6-(2-chlorophenyl)-9-(2-pyrrolylsulfonyl)thiocarbamoyl7,8,9,10-tetrahydro-1-methyl-4H-pyrido[4',3':4,5]thieno[3,2-f]1,2,4-triazolo[4,3-a]1,4-diazepine] yielded an IC50 in data set [1] of 205 nM. Besides, the IC50 in data set [2] came to 9100 nM. Further, in data set [3], the Percentage of action is on record as -71.7% and the Percentage of bronchoconstriction is 22.4%. Also, the LD50 in data set [4] is 400 to 1000 mg/kg.

The molecule `Cc1nnc2n1-c1sc3c(c1C(c1ccccc1Cl)=NC2)CCN(C(=S)NC(C)C)C3` [Example 1, 6-(2-chlorophenyl)-9-isopropylthiocarbamoyl-7,8,9,10-tetrahydro-1-methyl4H-pyrido[4',3':4,5]thieno[3,2-f]1,2,4-triazolo[4,3-a]1,4-diazepine] registered an IC50 in data set [1] of 32.8 nM. Further, the IC50 in data set [2] worked out at 7000 nM. In addition, in data set [3], the Percentage of action is -70.4% and the Percentage of bronchoconstriction is listed as 23.4%.

Regarding `Cc1nnc2n1-c1sc3c(c1C(c1ccccc1Cl)=NC2)CCN(C(=S)NS(=O)(=O)c1ccccc1)C3` [Example 30, 6-(2-chlorophenyl)-9-(phenylsulfonyl)thiocarbamoyl-7,8,9,10-tetrahydro-1-methyl-4H-pyrido[4',3':4,5]thieno[3,2-f]1,2,4-triazolo[4,3-a]1,4-diazepine], in data set [1], the IC50 stood at 11 nM. Also, the IC50 in data set [2] turned out to be 630 nM. In data set [3], the Percentage of action is given as -52.9% and the Percentage of bronchoconstriction is 37.2%.

The values are drawn from US5492906A, “Derivatives of thieno-triazolo-diazepine and therapeutic compositions containing them” (Societe de Conseils de Recherches et d'Applications …, priority 1989, dated 1996).
